From US12139492B2 (Endotarget Inc., priority 2021, dated 2024)

What was measured:
Type in all cases: cell-based
[1] = system: JeKo-1 cells; experiment: Antiproliferative effect, MTS cell viability assay, JeKo-1 cells; details: Homo sapiens; JeKo-1 mantle cell lymphoma cells; read-out: IC50 (anti-proliferation) JeKO-1 cells
Method in brief: (§1)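 Mino and JeKo-1 mantle B-cell lymphoma lines were exposed to compound at 0, 0.001, 0.01, 0.1, 1 and 10 μM for 72 h. Viability was read by MTS reduction to formazan, measured as absorbance at 490 nm.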

[2] = system: Mino cells; experiment: Antiproliferative effect, MTS cell viability assay, Mino cells; details: Homo sapiens, MINO, Mino mantle cell lymphoma cells; read-out: IC50 (anti-proliferation) Mino cells
Method in brief: as §1

[3] = target: BTK (Homo sapiens, UniProt Q06187); experiment: BTK degradation, DC50 and Dmax of Table 1 (cell line not given); parameters: endogenous in cells; details: for DC50: concentration giving 50% reduction of BTK expression level
Chain of BTK (Q06187 whole entry): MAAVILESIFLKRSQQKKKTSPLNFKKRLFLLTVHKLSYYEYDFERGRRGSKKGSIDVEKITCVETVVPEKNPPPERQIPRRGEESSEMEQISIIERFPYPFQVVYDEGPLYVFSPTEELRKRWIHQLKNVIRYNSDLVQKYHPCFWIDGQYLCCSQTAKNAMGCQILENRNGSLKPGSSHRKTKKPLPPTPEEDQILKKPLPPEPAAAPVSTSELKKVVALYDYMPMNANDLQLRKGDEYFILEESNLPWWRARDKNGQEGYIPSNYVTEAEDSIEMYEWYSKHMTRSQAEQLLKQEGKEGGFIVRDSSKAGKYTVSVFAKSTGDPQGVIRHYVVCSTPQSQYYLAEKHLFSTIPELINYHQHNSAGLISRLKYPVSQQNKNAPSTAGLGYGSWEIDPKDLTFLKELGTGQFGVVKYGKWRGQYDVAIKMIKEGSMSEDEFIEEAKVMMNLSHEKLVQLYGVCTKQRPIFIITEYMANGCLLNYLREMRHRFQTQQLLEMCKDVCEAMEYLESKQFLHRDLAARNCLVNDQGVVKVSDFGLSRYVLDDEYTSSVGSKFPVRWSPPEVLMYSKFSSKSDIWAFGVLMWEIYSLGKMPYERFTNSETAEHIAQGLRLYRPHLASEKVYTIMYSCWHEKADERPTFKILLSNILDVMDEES

Nc1ncnc2c1c(-c1ccc(Oc3ccccc3)cc1)nn2[C@@H]1CCCN(C(=O)N2CCC(N3CCC(c4ccc5c(c4)CN(C4CCC(=O)NC4=O)C5=O)CC3)CC2)C1 (stereo partly drawn) [Compound 54, 3-(5-(1′-((R)-3-(4-amino-3-(4-phenoxyphenyl)-1H-pyrazolo[3,4-d]pyrimidin-1-yl)piperidine-1-carbonyl)-[1,4′-bipiperidin]-4-yl)-1-oxoisoindolin-2-yl)piperidine-2,6-dione] was tested, and the IC50 [1] was < 1000 nM, the IC50 [2] was < 1000 nM and the Dmax [3] was > 90%. For the same compound, the DC50 [3] was < 10 nM.

In the case of Nc1ncnc2c1c(-c1ccc(Oc3ccccc3)cc1)nn2[C@@H]1CCCN(C2CCN(CCCN3CCN(c4ccc5c(c4)CN(C4CCC(=O)NC4=O)C5=O)CC3)CC2)C1 (stereo partly drawn) [Compound 152, 3-(5-(4-(3-((R)-3-(4-amino-3-(4-phenoxyphenyl)-1H-pyrazolo[3,4-d]pyrimidin-1-yl)-[1,4′-bipiperidin]-1′-yl)propyl)piperazin-1-yl)-1-oxoisoindolin-2-yl)piperidine-2,6-dione], the IC50 [1] is reported as > 10000 nM, the IC50 [2] is reported as > 10000 nM and the Dmax [3] is reported as > 75%. The DC50 [3] was > 50 nM.

With Nc1ncnc2c1c(-c1ccc(Oc3ccccc3)cc1)nn2C1CCN(C(=O)N2CCN(CCCC3CCN(c4ccc5c(c4)C(=O)N(C4CCC(=O)NC4=O)C5=O)CC3)CC2)CC1 (centres unmarked) [Compound 121, 5-(4-(3-(4-(4-(4-amino-3-(4-phenoxyphenyl)-1H-pyrzolo[3,4-d]pyrimidin-1-yl)piperidine-1-carbonyl)piperazin-1-yl)propyl)piperidin-1-yl)-2-(2,6-dioxopiperidin-3-yl)isoindoline-1,3-dione] the IC50 [1] was 1000 to 10000 nM, the IC50 [2] was 1000 to 10000 nM and the Dmax [3] was > 75%. For the same compound, the DC50 [3] was > 50 nM.

Nc1ncnc2c1c(-c1ccc(Oc3ccccc3)cc1)nn2C1CCN(C(=O)N2CCC(CCCC3CCN(c4ccc5c(c4)CN(C4CCC(=O)NC4=O)C5=O)CC3)CC2)CC1 (centres unmarked) [Compound 126, 3-(5-(4-(3-(1-(4-(4-amino-3-(4-phenoxyphenyl)-1H-pyrazolo[3,4-d]pyrimidin-1-yl)piperidine-1-carbonyl)piperidin-4-yl)propyl)piperidin-1-yl)-1-oxoisoindolin-2-yl)piperidine-2,6-dione] was tested, and the IC50 [1] was > 10000 nM, the IC50 [2] was 1000 to 10000 nM and the Dmax [3] was > 90%. The DC50 [3] was > 50 nM.

In the case of Nc1ncnc2c1c(-c1ccc(Oc3ccccc3)cc1)nn2C1CCCN(CCOCCN2CCN(c3ccc4c(c3)CN(C3CCC(=O)NC3=O)C4=O)CC2)C1 (centres unmarked) [Compound 8, 3-(5-(4-(2-(2-(3-(4-amino-3-(4-phenoxyphenyl)-1H-pyrazolo[3,4-d]pyrimidin-1-yl)piperidin-1-yl)ethoxy)ethyl)piperazin-1-yl)-1-oxoisoindolin-2-yl)piperidine-2,6-dione], the IC50 [1] is reported as 1000 to 10000 nM, the IC50 [2] is reported as 1000 to 10000 nM and the Dmax [3] is reported as > 90%. For the same compound, the DC50 [3] was 10 to 50 nM.

With Nc1ncnc2c1c(-c1ccc(Oc3ccccc3)cc1)nn2C1CCN(C(=O)N2CCN(CCCN3CCC(c4ccc5c(c4)CN(C4CCC(=O)NC4=O)C5=O)CC3)CC2)CC1 (centres unmarked) [Compound 124, 3-(5-(1-(3-(4-(4-(4-amino-3-(4-phenoxyphenyl)-1H-pyrazolo[3,4-d]pyrimidin-1-yl)piperidine-1-carbonyl)piperazin-1-yl)propyl)piperidin-4-yl)-1-oxoisoindolin-2-yl)piperidine-2,6-dione] the IC50 [1] was > 10000 nM, the IC50 [2] was > 10000 nM and the Dmax [3] was > 90%. The DC50 [3] was > 50 nM.

For Nc1ncnc2c1c(-c1ccc(Oc3ccccc3)cc1)nn2[C@@H]1CCCN(C2CCN(CCCC3CCN(c4ccc5c(c4)C(=O)N(C4CCC(=O)NC4=O)C5=O)CC3)CC2)C1 (stereo partly drawn) [Compound 155, 5-(4-(3-((R)-3-(4-amino-3-(4-phenoxyphenyl)-1H-pyrazolo[3,4-d]pyrimidin-1-yl)-[1,4′-bipiperidin]-1′-yl)propyl)piperidin-1-yl)-2-(2,6-dioxopiperidin-3-yl)isoindoline-1,3-dione], the IC50 [1] was > 10000 nM, the IC50 [2] was > 10000 nM and the Dmax [3] was > 50%. For the same compound, the DC50 [3] was > 50 nM.

For Nc1ncnc2c1c(-c1ccc(Oc3ccccc3)cc1)nn2[C@@H]1CCCN(C2CCN(C(=O)N3CCC(CN4CCC(c5ccc6c(c5)CN(C5CCC(=O)NC5=O)C6=O)CC4)CC3)CC2)C1 (stereo partly drawn) [Compound 174, 3-(5-(1-((1-((R)-3-(4-amino-3-(4-phenoxyphenyl)-1H-pyrazolo[3,4-d]pyrimidin-1-yl)-[1,4′-bipiperidine]-1′-carbonyl)piperidin-4-yl)methyl)piperidin-4-yl)-1-oxoisoindolin-2-yl)piperidine-2,6-dione], the IC50 [1] was 1000 to 10000 nM, the IC50 [2] was 1000 to 10000 nM and the Dmax [3] was > 90%. For the same compound, the DC50 [3] was 10 to 50 nM.

With Nc1ncnc2c1c(-c1ccc(Oc3ccccc3)cc1)nn2[C@@H]1CCCN(CC2CCN(C(=O)N3CCC(CCN4CCN(c5ccc6c(c5)CN(C5CCC(=O)NC5=O)C6=O)CC4)CC3)CC2)C1 (stereo partly drawn) [Compound 34, 3-(5-(4-(2-(1-(4-(((R)-3-(4-amino-3-(4-phenoxyphenyl)-1H-pyrazolo[3,4-d]pyrimidin-1-yl)piperidin-1-yl)methyl)piperidine-1-carbonyl)piperidin-4-yl)ethyl)piperazin-1-yl)-1-oxoisoindolin-2-yl)piperidine-2,6-dione] the IC50 [1] was 1000 to 10000 nM, the IC50 [2] was 1000 to 10000 nM and the Dmax [3] was > 90%. The DC50 [3] was > 50 nM.

In the case of Nc1ncnc2c1c(-c1ccc(Oc3ccccc3)cc1)nn2C1CCN(C(=O)N2CCC(CCC3CCN(c4ccc5c(c4)C(=O)N(C4CCC(=O)NC4=O)C5=O)CC3)CC2)CC1 (centres unmarked) [Compound 101, 5-(4-(2-(1-(4-(4-amino-3-(4-phenoxyphenyl)-1H-pyrazolo[3,4-d]pyrimidin-1-yl)piperidine-1-carbonyl)piperidin-4-yl)ethyl)piperidin-1-yl)-2-(2,6-dioxopiperidin-3-yl)isoindoline-1,3-dione], the IC50 [1] is reported as > 10000 nM, the IC50 [2] is reported as > 10000 nM and the Dmax [3] is reported as > 90%. The DC50 [3] was 10 to 50 nM.

For Nc1ncnc2c1c(-c1ccc(Oc3ccccc3)cc1)nn2C1CCN(CCOCCC2CCN(c3ccc4c(c3)CN(C3CCC(=O)NC3=O)C4=O)CC2)CC1 (centres unmarked) [Compound 20, 3-(5-(4-(2-(2-(4-(4-amino-3-(4-phenoxyphenyl)-1H-pyrazolo[3,4-d]pyrimidin-1-yl)piperidin-1-yl)ethoxy)ethyl)piperidin-1-yl)-1-oxoisoindolin-2-yl)piperidine-2,6-dione], the IC50 [1] was 1000 to 10000 nM, the IC50 [2] was 1000 to 10000 nM and the Dmax [3] was > 90%. For the same compound, the DC50 [3] was 10 to 50 nM.

With Nc1ncnc2c1c(-c1ccc(Oc3ccccc3)cc1)nn2C1CCCN(CCOCCN2CCC(c3ccc4c(c3)CN(C3CCC(=O)NC3=O)C4=O)CC2)C1 (centres unmarked) [Compound 16, 3-(5-(1-(2-(2-(3-(4-amino-3-(4-phenoxyphenyl)-1H-pyrazolo[3,4-d]pyrimidin-1-yl)piperidin-1-yl)ethoxy)ethyl)piperidin-4-yl)-1-oxoisoindolin-2-yl)piperidine-2,6-dione] the IC50 [1] was 1000 to 10000 nM, the IC50 [2] was 1000 to 10000 nM and the Dmax [3] was > 90%. The DC50 [3] was 10 to 50 nM.

In the case of Nc1ncnc2c1c(-c1ccc(Oc3ccccc3)cc1)nn2[C@@H]1CCCN(C2CCN(C(=O)N3CCN(CCC4CCN(c5ccc6c(c5)CN(C5CCC(=O)NC5=O)C6=O)CC4)CC3)CC2)C1 (stereo partly drawn) [Compound 178, 3-(5-(4-(2-(4-((R)-3-(4-amino-3-(4-phenoxyphenyl)-1H-pyrazolo[3,4-d]pyrimidin-1-yl)-[1,4′-bipiperidine]-1′-carbonyl)piperazin-1-yl)ethyl)piperidin-1-yl)-1-oxoisoindolin-2-yl)piperidine-2,6-dione], the IC50 [1] is reported as > 10000 nM, the IC50 [2] is reported as > 10000 nM and the Dmax [3] is reported as > 75%. For the same compound, the DC50 [3] was > 50 nM.

For Nc1ncnc2c1c(-c1ccc(Oc3ccccc3)cc1)nn2[C@@H]1CCCN(C2CCN(CCCN3CCC(c4ccc5c(c4)CN(C4CCC(=O)NC4=O)C5=O)CC3)CC2)C1 (stereo partly drawn) [Compound 154, 3-(5-(1-(3-((R)-3-(4-amino-3-(4-phenoxyphenyl)-1H-pyrazolo[3,4-d]pyrimidin-1-yl)-[1,4′-bipiperidin]-1′-yl)propyl)piperidin-4-yl)-1-oxoisoindolin-2-yl)piperidine-2,6-dione], the IC50 [1] was > 10000 nM, the IC50 [2] was > 10000 nM and the Dmax [3] was > 75%. The DC50 [3] was > 50 nM.

With Nc1ncnc2c1c(-c1ccc(Oc3ccccc3)cc1)nn2[C@@H]1CCCN(CC2CCN(CCCN3CCN(c4ccc5c(c4)C(=O)N(C4CCC(=O)NC4=O)C5=O)CC3)CC2)C1 (stereo partly drawn) [Compound 137, 5-(4-(3-(4-(((R)-3-(4-amino-3-(4-phenoxyphenyl)-1H-pyrazolo[3,4-d]pyrimidin-1-yl)piperidin-1-yl)methyl)piperidin-1-yl)propyl)piperazin-1-yl)-2-(2,6-dioxopiperidin-3-yl)isoindoline-1,3-dione] the IC50 [1] was > 10000 nM, the IC50 [2] was > 10000 nM and the Dmax [3] was > 75%. The DC50 [3] was 10 to 50 nM.

In the case of Nc1ncnc2c1c(-c1ccc(Oc3ccccc3)cc1)nn2[C@@H]1CCCN(C(=O)N2CCC(CCN3CCC(c4ccc5c(c4)CN(C4CCC(=O)NC4=O)C5=O)CC3)CC2)C1 (stereo partly drawn) [Compound 74, 3-(5-(1-(2-(1-((R)-3-(4-amino-3-(4-phenoxyphenyl)-1H-pyrazolo[3,4-d]pyrimidin-1-yl)piperidine-1-carbonyl)piperidin-4-yl)ethyl)piperidin-4-yl)-1-oxoisoindolin-2-yl)piperidine-2,6-dione], the IC50 [1] is reported as > 10000 nM, the IC50 [2] is reported as > 10000 nM and the Dmax [3] is reported as > 90%. For the same compound, the DC50 [3] was 10 to 50 nM.

With Nc1ncnc2c1c(-c1ccc(Oc3ccccc3)cc1)nn2[C@@H]1CCCN(C2CCN(C(=O)N3CCC(CC4CCN(c5ccc6c(c5)C(=O)N(C5CCC(=O)NC5=O)C6=O)CC4)CC3)CC2)C1 (stereo partly drawn) [Compound 167, 5-(4-((1-((R)-3-(4-amino-3-(4-phenoxyphenyl)-1H-pyrazolo[3,4-d]pyrimidin-1-yl)-[1,4′-bipiperidine]-1′-carbonyl)piperidin-4-yl)methyl)piperidin-1-yl)-2-(2,6-dioxopiperidin-3-yl)isoindoline-1,3-dione] the IC50 [1] was 1000 to 10000 nM, the IC50 [2] was 1000 to 10000 nM and the Dmax [3] was > 90%. It also gave a DC50 [3] of 10 to 50 nM.
